Test results taken from ChEMBL document CHEMBL5303304, “EUbOPEN Chemogenomics Library - IncuCyte” (2023).

Columns and labels:
Type in all cases: toxicity, cell-based
Fibroblast = assay: Incucyte cell viability with human fibroblast; conditions: 10 µM, compound concentration 10 uM
U2OS = assay: Incucyte cell viability with U2OS; conditions: human, 10 µM, compound concentration 10 uM
HEK-293T = assay: Incucyte cell viability with HEK293T; conditions: human, 10 µM, compound concentration 10 uM
Further: unitless GR value; below 1 slowed growth and below 0 cell loss.

Oc1c(CN2CCCC2)cc(COCc2ccccc2)c2cccnc12
Growth Rate (Fibroblast; 0 h, replicate number 1): 0.87
Growth Rate (Fibroblast; 18 h, replicate number 1): 0.96
Growth Rate (Fibroblast; 24 h, replicate number 1): 0.83
Growth Rate (Fibroblast; 24 h, replicate number 2): 0.6
Growth Rate (U2OS; 0 h, replicate number 1): 0.25
Growth Rate (U2OS; 6 h, replicate number 1): 0.93
Growth Rate (U2OS; 6 h, replicate number 2): 0.91
Growth Rate (U2OS; 12 h, replicate number 1): 0.55
Growth Rate (U2OS; 12 h, replicate number 2): 0.58
Growth Rate (U2OS; 18 h, replicate number 1): 0.93
Growth Rate (U2OS; 18 h, replicate number 2): 0.56
Growth Rate (U2OS; 24 h, replicate number 1): 0.79
Growth Rate (U2OS; 24 h, replicate number 2): 0.54
Growth Rate (HEK-293T; 0 h, replicate number 2): -0.99
Growth Rate (HEK-293T; 6 h, replicate number 1): 0.34
Growth Rate (HEK-293T; 6 h, replicate number 2): 0.05
Growth Rate (HEK-293T; 12 h, replicate number 1): -0.04
Growth Rate (HEK-293T; 12 h, replicate number 2): -0.05
Growth Rate (HEK-293T; 18 h, replicate number 1): -0.09
Growth Rate (HEK-293T; 18 h, replicate number 2): -0.21
Growth Rate (HEK-293T; 24 h, replicate number 1): -0.18
Growth Rate (HEK-293T; 24 h, replicate number 2): -0.25

CCCc1c(OCCCOc2ccc(OCC(=O)O)cc2)ccc(C(C)=O)c1O
Growth Rate (Fibroblast; 0 h, replicate number 2): -0.08
Growth Rate (Fibroblast; 6 h, replicate number 1): 0.58
Growth Rate (Fibroblast; 12 h, replicate number 1): 0.74
Growth Rate (Fibroblast; 12 h, replicate number 2): 0.87
Growth Rate (Fibroblast; 18 h, replicate number 1): 0.6
Growth Rate (Fibroblast; 24 h, replicate number 1): 0.94
Growth Rate (U2OS; 6 h, replicate number 1): 0.97
Growth Rate (U2OS; 12 h, replicate number 1): 0.84
Growth Rate (HEK-293T; 0 h, replicate number 2): -0.76
Growth Rate (HEK-293T; 12 h, replicate number 2): 0.94
Growth Rate (HEK-293T; 18 h, replicate number 2): 0.97

CN1CCCN(C(=O)c2cccc(-c3ccc(/C=C4/C(=O)Nc5ccc(Cl)cc54)o3)c2)CC1
Growth Rate (Fibroblast; 6 h, replicate number 1): -0.99
Growth Rate (Fibroblast; 6 h, replicate number 2): -0.94
Growth Rate (Fibroblast; 12 h, replicate number 1): -0.83
Growth Rate (Fibroblast; 12 h, replicate number 2): -0.82
Growth Rate (Fibroblast; 18 h, replicate number 1): -0.74
Growth Rate (Fibroblast; 18 h, replicate number 2): -0.72
Growth Rate (Fibroblast; 24 h, replicate number 1): -0.67
Growth Rate (Fibroblast; 24 h, replicate number 2): -0.63
Growth Rate (U2OS; 0 h, replicate number 2): -0.78
Growth Rate (U2OS; 6 h, replicate number 1): -0.67
Growth Rate (U2OS; 6 h, replicate number 2): -0.6
Growth Rate (U2OS; 12 h, replicate number 1): -0.7
Growth Rate (U2OS; 12 h, replicate number 2): -0.54
Growth Rate (U2OS; 18 h, replicate number 1): -0.53
Growth Rate (U2OS; 18 h, replicate number 2): -0.44
Growth Rate (U2OS; 24 h, replicate number 1): -0.48
Growth Rate (U2OS; 24 h, replicate number 2): -0.42
Growth Rate (HEK-293T; 0 h, replicate number 2): -1
Growth Rate (HEK-293T; 6 h, replicate number 1): -0.69
Growth Rate (HEK-293T; 6 h, replicate number 2): -0.67
Growth Rate (HEK-293T; 12 h, replicate number 1): -0.6
Growth Rate (HEK-293T; 12 h, replicate number 2): -0.63
Growth Rate (HEK-293T; 18 h, replicate number 1): -0.51
Growth Rate (HEK-293T; 18 h, replicate number 2): -0.49
Growth Rate (HEK-293T; 24 h, replicate number 1): -0.45
Growth Rate (HEK-293T; 24 h, replicate number 2): -0.47

N[C@@H]1CCCN(c2c(/C=C3\SC(=O)NC3=O)cccc2-c2ccccc2)C1
Growth Rate (Fibroblast; 6 h, replicate number 2): 0.19
Growth Rate (Fibroblast; 12 h, replicate number 1): 0.71
Growth Rate (Fibroblast; 12 h, replicate number 2): 0.34
Growth Rate (Fibroblast; 18 h, replicate number 1): 0.83
Growth Rate (Fibroblast; 18 h, replicate number 2): 0.55
Growth Rate (Fibroblast; 24 h, replicate number 1): 1
Growth Rate (Fibroblast; 24 h, replicate number 2): 0.53
Growth Rate (U2OS; 0 h, replicate number 1): -0.41
Growth Rate (U2OS; 12 h, replicate number 1): 0.97
Growth Rate (HEK-293T; 0 h, replicate number 2): -0.99
Growth Rate (HEK-293T; 6 h, replicate number 2): 0.84
Growth Rate (HEK-293T; 12 h, replicate number 2): 0.79
Growth Rate (HEK-293T; 18 h, replicate number 1): 0.8
Growth Rate (HEK-293T; 18 h, replicate number 2): 0.84
Growth Rate (HEK-293T; 24 h, replicate number 1): 0.92
Growth Rate (HEK-293T; 24 h, replicate number 2): 0.97

Nc1ncnc2c1ccn2[C@@H]1O[C@H]([C@@H](O)c2ccccc2)[C@@H](O)[C@H]1O
Growth Rate (Fibroblast; 6 h, replicate number 1): 0.32
Growth Rate (Fibroblast; 6 h, replicate number 2): 0.31
Growth Rate (Fibroblast; 12 h, replicate number 1): 0.69
Growth Rate (Fibroblast; 12 h, replicate number 2): 0.57
Growth Rate (Fibroblast; 18 h, replicate number 1): 0.97
Growth Rate (Fibroblast; 24 h, replicate number 1): 0.81
Growth Rate (U2OS; 12 h, replicate number 2): 1
Growth Rate (U2OS; 18 h, replicate number 1): 0.86
Growth Rate (U2OS; 18 h, replicate number 2): 0.91
Growth Rate (U2OS; 24 h, replicate number 1): 0.8
Growth Rate (U2OS; 24 h, replicate number 2): 0.95
Growth Rate (HEK-293T; 0 h, replicate number 2): -0.97
Growth Rate (HEK-293T; 6 h, replicate number 1): 0.8

COc1cc(N(C)c2ccnc3ccc(C(F)(F)F)cc23)cc(OC)c1OC
Growth Rate (Fibroblast; 0 h, replicate number 1): 0.97
Growth Rate (Fibroblast; 6 h, replicate number 1): -0.52
Growth Rate (Fibroblast; 6 h, replicate number 2): 0.41
Growth Rate (Fibroblast; 12 h, replicate number 2): 0.94
Growth Rate (Fibroblast; 18 h, replicate number 2): 0.91
Growth Rate (U2OS; 0 h, replicate number 2): 0.66
Growth Rate (U2OS; 6 h, replicate number 2): 0.7
Growth Rate (U2OS; 12 h, replicate number 1): 0.9
Growth Rate (U2OS; 12 h, replicate number 2): 0.88
Growth Rate (U2OS; 18 h, replicate number 2): 0.92
Growth Rate (U2OS; 24 h, replicate number 1): 1
Growth Rate (U2OS; 24 h, replicate number 2): 0.84
Growth Rate (HEK-293T; 0 h, replicate number 2): -1
Growth Rate (HEK-293T; 6 h, replicate number 2): -0.32
Growth Rate (HEK-293T; 12 h, replicate number 2): 0.01
Growth Rate (HEK-293T; 18 h, replicate number 2): 0.27
Growth Rate (HEK-293T; 24 h, replicate number 2): 0.48

CCC(=O)Nc1cc(Nc2cc(NC3CC3)n3ncc(C#N)c3n2)ccc1C
Growth Rate (Fibroblast; 6 h, replicate number 1): 0.76
Growth Rate (Fibroblast; 6 h, replicate number 2): 0.41
Growth Rate (Fibroblast; 12 h, replicate number 1): 0.46
Growth Rate (Fibroblast; 12 h, replicate number 2): 0.67
Growth Rate (Fibroblast; 18 h, replicate number 1): 0.33
Growth Rate (Fibroblast; 18 h, replicate number 2): 0.61
Growth Rate (Fibroblast; 24 h, replicate number 1): 0.48
Growth Rate (Fibroblast; 24 h, replicate number 2): 0.85
Growth Rate (U2OS; 0 h, replicate number 1): -1
Growth Rate (U2OS; 6 h, replicate number 1): 0.24
Growth Rate (U2OS; 6 h, replicate number 2): 0.61
Growth Rate (U2OS; 12 h, replicate number 1): 0.12
Growth Rate (U2OS; 12 h, replicate number 2): 0.52
Growth Rate (U2OS; 18 h, replicate number 1): 0.39
Growth Rate (U2OS; 18 h, replicate number 2): 0.54
Growth Rate (U2OS; 24 h, replicate number 1): 0.44
Growth Rate (U2OS; 24 h, replicate number 2): 0.53
Growth Rate (HEK-293T; 0 h, replicate number 2): -0.72
Growth Rate (HEK-293T; 6 h, replicate number 1): 0.87
Growth Rate (HEK-293T; 6 h, replicate number 2): 0.94
Growth Rate (HEK-293T; 12 h, replicate number 1): 0.79
Growth Rate (HEK-293T; 12 h, replicate number 2): 0.59
Growth Rate (HEK-293T; 18 h, replicate number 1): 0.79
Growth Rate (HEK-293T; 18 h, replicate number 2): 0.83
Growth Rate (HEK-293T; 24 h, replicate number 1): 0.81
Growth Rate (HEK-293T; 24 h, replicate number 2): 0.83

CN[C@@H](C)C(=O)N[C@H](C(=O)N1CCC[C@H]1C(=O)N[C@@H]1CCCc2ccccc21)C1CCCCC1.Cl
Growth Rate (Fibroblast; 12 h, replicate number 1): 0.76
Growth Rate (Fibroblast; 12 h, replicate number 2): 0.89
Growth Rate (Fibroblast; 18 h, replicate number 1): 0.75
Growth Rate (Fibroblast; 24 h, replicate number 1): 0.72
Growth Rate (U2OS; 0 h, replicate number 1): 0.24
Growth Rate (U2OS; 6 h, replicate number 1): 0.97
Growth Rate (U2OS; 12 h, replicate number 1): 0.89
Growth Rate (HEK-293T; 0 h, replicate number 2): -0.36
Growth Rate (HEK-293T; 6 h, replicate number 2): 0.63
Growth Rate (HEK-293T; 12 h, replicate number 1): 0.81
Growth Rate (HEK-293T; 12 h, replicate number 2): 0.9
Growth Rate (HEK-293T; 18 h, replicate number 2): 0.87
Growth Rate (HEK-293T; 24 h, replicate number 2): 0.88

COc1cc2ncnc(Nc3ccc(F)c(Cl)c3)c2cc1OCCN(C)C[C@H](C)O
Growth Rate (Fibroblast; 0 h, replicate number 2): 0
Growth Rate (Fibroblast; 6 h, replicate number 1): -0.42
Growth Rate (Fibroblast; 6 h, replicate number 2): 0.44
Growth Rate (Fibroblast; 12 h, replicate number 1): -0.2
Growth Rate (Fibroblast; 12 h, replicate number 2): -0.12
Growth Rate (Fibroblast; 18 h, replicate number 1): -0.23
Growth Rate (Fibroblast; 18 h, replicate number 2): -0.05
Growth Rate (Fibroblast; 24 h, replicate number 1): -0.21
Growth Rate (Fibroblast; 24 h, replicate number 2): 0
Growth Rate (U2OS; 0 h, replicate number 2): 0.24
Growth Rate (U2OS; 6 h, replicate number 1): 0.7
Growth Rate (U2OS; 6 h, replicate number 2): 0.36
Growth Rate (U2OS; 12 h, replicate number 1): 0.68
Growth Rate (U2OS; 12 h, replicate number 2): 0.35
Growth Rate (U2OS; 18 h, replicate number 1): 0.77
Growth Rate (U2OS; 18 h, replicate number 2): 0.44
Growth Rate (U2OS; 24 h, replicate number 1): 0.92
Growth Rate (U2OS; 24 h, replicate number 2): 0.42
Growth Rate (HEK-293T; 0 h, replicate number 2): -0.98
Growth Rate (HEK-293T; 6 h, replicate number 1): 0.36
Growth Rate (HEK-293T; 6 h, replicate number 2): 0.69
Growth Rate (HEK-293T; 12 h, replicate number 1): 0.61
Growth Rate (HEK-293T; 12 h, replicate number 2): 0.49
Growth Rate (HEK-293T; 18 h, replicate number 1): 0.65
Growth Rate (HEK-293T; 18 h, replicate number 2): 0.69
Growth Rate (HEK-293T; 24 h, replicate number 1): 0.65
Growth Rate (HEK-293T; 24 h, replicate number 2): 0.73

CN1CCN(c2ccc(/C=C(\C#N)c3ccccc3Br)cc2)CC1.Cl.Cl
Growth Rate (Fibroblast; 0 h, replicate number 1): 0.9
Growth Rate (Fibroblast; 0 h, replicate number 2): 0.65
Growth Rate (Fibroblast; 6 h, replicate number 1): 0.32
Growth Rate (Fibroblast; 6 h, replicate number 2): 0.09
Growth Rate (Fibroblast; 12 h, replicate number 1): 0.42
Growth Rate (Fibroblast; 12 h, replicate number 2): -0.18
Growth Rate (Fibroblast; 18 h, replicate number 1): 0.18
Growth Rate (Fibroblast; 18 h, replicate number 2): -0.18
Growth Rate (Fibroblast; 24 h, replicate number 1): 0.05
Growth Rate (Fibroblast; 24 h, replicate number 2): -0.21
Growth Rate (U2OS; 6 h, replicate number 1): 0.94
Growth Rate (HEK-293T; 0 h, replicate number 2): -0.96
Growth Rate (HEK-293T; 6 h, replicate number 1): 0
Growth Rate (HEK-293T; 6 h, replicate number 2): 0.54
Growth Rate (HEK-293T; 12 h, replicate number 1): 0.24
Growth Rate (HEK-293T; 12 h, replicate number 2): 0.47
Growth Rate (HEK-293T; 18 h, replicate number 1): 0.38
Growth Rate (HEK-293T; 18 h, replicate number 2): 0.48
Growth Rate (HEK-293T; 24 h, replicate number 1): 0.46
Growth Rate (HEK-293T; 24 h, replicate number 2): 0.71
